Experimental data taken from patent US4002753A, “6-Substituted 3-carbethoxyhydrazinopyridazines” (I.S.F. S.p.A., priority 1973, dated 1977).

What was measured:
Assay type in all cases: in vivo
[1] = tested on: Renal hypertensive awaken rat; assay: Anti-hypertensive activity in the renal hypertensive awaken rat (Grollman method), arterial pressure by bloodless method; conditions: oral; for ED20: read-out: ED20 orally
Experimental: Some illustrative results obtained in the renal hypertensive awaken rat according to the method of A. Grollman (Proc. Soc. Exptl. Biol. Med., 57, 102, 1944) are given in Table 1. The products were administered orally to groups of 4 rats for each dosage level. The arterial pressure was measured by bloodless method immediately before and at the 1st, 3rd, 5th, 7th, 12th, 24th, 36th, 48th and 60th hour after administration.
x ED20 = dose producing a 20% fall in pressure compared to the basal

Mouse = assay: Acute toxicity in the mouse, intraperitoneal (approximate LD50); conditions: 6 dosage levels
Experimental: (§1) The evaluation of the acute toxicity was carried out in the mouse administering the products by the intraperitoneal route at 6 different dosage levels. The approximate LD50 was determined thereafter.

[2] = as above; conditions: in vivo, ip, 6 dosage levels, read-out: Mouse LD50 i.p.
Experimental: as §1

[3] = dose producing a 20% fall in pressure compared to the basal value

| SMILES | Time in hours of half effect appearance [1] | Time in hours of maximum effect appearance [1] | ED20 orally [1, 3] | Mouse LD50 i.p. (Mouse) | ED20 [1, 3] | LD50 [2] |
| --- | --- | --- | --- | --- | --- | --- |
| CCOC(=O)NNc1nncc2ccccc12 [Binazin, reference compound] | 20 h | 3 h | 7 mg/kg | 500 mg/kg |  |  |
| CCOC(=O)NNc1ccc(N(C)CC(C)O)nn1 (centres unmarked) [Example 3, 3-(2-Carbethoxyhydrazino)-6-[N-(2-hydroxypropyl)methylamino]-pyridazine] | 36 h | 5 h |  |  | 1 mg/kg | 700 mg/kg |
| C=CCN(CC=C)c1ccc(NNC(=O)OCC)nn1 [Example 5, 3-(2-Carbethoxyhydrazino)-6-diallylaminopyridazine] | 48 h | 5 h |  |  | 1 mg/kg | 300 mg/kg |
| CCOC(=O)NNc1ccc(N(CC)CC(C)O)nn1 (centres unmarked) [Example 6, 3-(2-Carbethoxyhydrazino)-6-[N-(2-hydroxypropyl)ethylamino]-pyridazine] | 36 h | 5 h |  |  | 1 mg/kg | 700 mg/kg |
| NNc1nncc2ccccc12 [Hydralazine, reference compound] | 5 h | 1 h |  |  | 3 mg/kg | 100 mg/kg |
